Compound: C(C(=O)C(=O)O)Br [Bromopyruvate] + CCNC(=O)c1noc(-c2cc(C(C)C)c(O)cc2O)c1-c1ccc(CN2CCOCC2)cc1 [Luminespib] (partner 0.01 µM)
Test: relative viability (nuclei count vs DMSO), 5 days (fraction); higher = more cells survive
Conditions: first compound 100 µM
Procedure, shortened: (§1)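 Relative viability was taken as the ratio of nuclei in treated wells to nuclei in vehicle wells. Lung cancer cell lines in 1536-well plates received compounds by pin tool one day after seeding, either one drug alone or a fixed anchor-drug dose plus five library-drug doses (not always all listed) in √10 steps. Nuclei were counted on 4× images after 5 days of treatment, and values are medians of duplicate plates.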

Point of comparison: SK-LU-1, relative viability 0.215. Against it:
- NCI-H1755 — higher, 0.465
- NCI-H2085 — higher, 0.217
- HCC-15 — higher, 0.25
- NCI-H1793 — higher, 0.303
- PC-3 [JPC-3] — higher, 0.693
- EKVX — higher, 1.02
- LC-2-ad — higher, 0.843
- NCI-H1944 — higher, 0.734
- NCI-H1975 — higher, 0.253
- ABC-1 — higher, 0.234

Compound: CC(O)(CS(=O)(=O)c1ccc(F)cc1)C(=O)Nc1ccc(C#N)c(C(F)(F)F)c1 [Bicalutamide] + Cc1cc(Nc2cc(N3CCN(C)CC3)nc(Sc3ccc(NC(=O)C4CC4)cc3)n2)n[nH]1 [Tozasertib] (partner 0.1 µM)
Test: as above
Conditions: first compound 0.08 µM
Procedure, shortened: as §1

Point of comparison: NCI-H322M, relative viability 0.522. Against it:
- LCLC-97TM1 — lower, 0.212
- NCI-H2023 — lower, 0.448
- A-427 — lower, 0.232
- NCI-H460 — lower, 0.521
- NCI-H727 — higher, 0.615
- NCI-H1734 — lower, 0.249
- NCI-H520 — lower, 0.433
- NCI-H2405 — higher, 0.876
- SW 1573 — lower, 0.205
- NCI-H1395 — higher, 0.829
- 201T — higher, 1.01
- NCI-H1915 — lower, 0.434
- HCC-827 — lower, 0.403
- LXF-289 — lower, 0.206
- NCI-H2347 — higher, 0.625
- NCI-H650 — higher, 0.792
- CAL-12T — lower, 0.267
- NCI-H1651 — higher, 0.761
- EPLC-272H — lower, 0.238
- NCI-H23 — lower, 0.371
- NCI-H1355 — higher, 0.613
- NCI-H1437 — lower, 0.399
- NCI-H1755 — lower, 0.458
- NCI-H2085 — higher, 0.913
- HCC-15 — lower, 0.428
- NCI-H1793 — lower, 0.36
- PC-3 [JPC-3] — higher, 0.926
- EKVX — lower, 0.372
- LC-2-ad — lower, 0.465
- NCI-H1944 — lower, 0.246
- NCI-H1975 — higher, 0.785
- SK-LU-1 — lower, 0.341
- ABC-1 — lower, 0.179

Same assay, conditions: first compound 0.253 µM

Point of comparison: NCI-H2023, relative viability 0.376. Against it:
- LCLC-97TM1 — lower, 0.186
- A-427 — lower, 0.183
- NCI-H460 — higher, 0.39
- NCI-H727 — higher, 0.619
- NCI-H1734 — lower, 0.244
- NCI-H520 — higher, 0.414
- NCI-H2405 — higher, 0.691
- NCI-H1395 — higher, 0.736
- 201T — higher, 0.917
- NCI-H1915 — higher, 0.447
- HCC-827 — lower, 0.341
- LXF-289 — lower, 0.182
- NCI-H2347 — higher, 0.511
- NCI-H650 — higher, 0.747
- CAL-12T — lower, 0.332
- NCI-H1651 — higher, 0.658
- EPLC-272H — lower, 0.224
- NCI-H23 — lower, 0.322
- NCI-H1355 — higher, 0.499
- NCI-H322M — higher, 0.478
- NCI-H1437 — higher, 0.423
- NCI-H1755 — higher, 0.625
- NCI-H2085 — higher, 0.81
- HCC-15 — higher, 0.394
- NCI-H1793 — lower, 0.257
- PC-3 [JPC-3] — higher, 0.903
- EKVX — lower, 0.315
- LC-2-ad — higher, 0.429
- NCI-H1944 — lower, 0.232
- NCI-H1975 — higher, 0.711
- SK-LU-1 — lower, 0.291
- ABC-1 — lower, 0.168

Same assay, conditions: first compound 0.8 µM

Point of comparison: NCI-H1355, relative viability 0.658. Against it:
- LCLC-97TM1 — lower, 0.296
- NCI-H2023 — lower, 0.306
- A-427 — lower, 0.209
- NCI-H460 — lower, 0.434
- NCI-H727 — lower, 0.591
- NCI-H1734 — lower, 0.268
- NCI-H520 — lower, 0.539
- NCI-H2405 — higher, 0.715
- SW 1573 — lower, 0.231
- NCI-H1395 — higher, 0.827
- 201T — higher, 0.962
- NCI-H1915 — lower, 0.491
- HCC-827 — lower, 0.402
- LXF-289 — lower, 0.198
- NCI-H2347 — lower, 0.597
- NCI-H650 — higher, 0.885
- CAL-12T — lower, 0.324
- NCI-H1651 — higher, 0.66
- EPLC-272H — lower, 0.25
- NCI-H23 — lower, 0.375
- NCI-H322M — lower, 0.51
- NCI-H1437 — lower, 0.448
- NCI-H1755 — lower, 0.576
- NCI-H2085 — higher, 0.805
- HCC-15 — lower, 0.365
- NCI-H1793 — lower, 0.313
- PC-3 [JPC-3] — higher, 0.952
- EKVX — lower, 0.386
- LC-2-ad — lower, 0.552
- NCI-H1944 — lower, 0.256
- NCI-H1975 — higher, 0.745
- SK-LU-1 — lower, 0.295
- ABC-1 — lower, 0.17

Same assay, conditions: first compound 2.53 µM

Point of comparison: NCI-H2085, relative viability 0.804. Against it:
- LCLC-97TM1 — lower, 0.231
- NCI-H2023 — lower, 0.249
- A-427 — lower, 0.165
- NCI-H460 — lower, 0.52
- NCI-H727 — lower, 0.603
- NCI-H1734 — lower, 0.279
- NCI-H520 — lower, 0.458
- NCI-H2405 — lower, 0.656
- SW 1573 — lower, 0.135
- NCI-H1395 — lower, 0.696
- 201T — lower, 0.793
- NCI-H1915 — lower, 0.381
- HCC-827 — lower, 0.402
- LXF-289 — lower, 0.157
- NCI-H2347 — lower, 0.504
- NCI-H650 — lower, 0.653
- CAL-12T — lower, 0.373
- NCI-H1651 — lower, 0.632
- EPLC-272H — lower, 0.237
- NCI-H23 — lower, 0.374
- NCI-H1355 — lower, 0.462
- NCI-H322M — lower, 0.504
- NCI-H1437 — lower, 0.403
- NCI-H1755 — lower, 0.599
- HCC-15 — lower, 0.228
- NCI-H1793 — lower, 0.309
- PC-3 [JPC-3] — higher, 0.893
- EKVX — lower, 0.371
- LC-2-ad — lower, 0.505
- NCI-H1944 — lower, 0.257
- NCI-H1975 — lower, 0.514
- SK-LU-1 — lower, 0.319
- ABC-1 — lower, 0.167

Compound: C(C(=O)C(=O)O)Br [Bromopyruvate] + O=C(CCCCCCC(=O)Nc1ccccc1)NO [Vorinostat] (partner 1 µM)
Test: as above
Conditions: first compound 1 µM
Procedure, shortened: as §1

Point of comparison: NCI-H1395, relative viability 1.03. Against it:
- LCLC-97TM1 — lower, 0.666
- NCI-H2023 — lower, 0.547
- A-427 — lower, 0.87
- NCI-H460 — lower, 0.74
- NCI-H727 — higher, 1.28
- NCI-H1734 — lower, 0.762
- NCI-H520 — lower, 0.543
- NCI-H2405 — higher, 1.35
- SW 1573 — lower, 0.799
- 201T — lower, 0.967
- NCI-H1915 — lower, 0.5
- HCC-827 — lower, 0.844
- LXF-289 — lower, 0.777
